In ChEMBL document CHEMBL1126754, “Hydroxyurea derivatives as hypoglycemic agents” (1993):

How the values were obtained:
[1] = system: Mus musculus; experiment: In vivo ability to lower blood glucose in the ob/ob mouse model at a dose of 5 mg/kg; assay type: functional
[2] = system: 3T3-L1; experiment: Effect on GLUT 1 glucose transporter expression in 3T3-L1 adipocytes at dose of 30 uM; assay type: functional, Mus musculus
[3] = system: 3T3-L1; experiment: Effect on GLUT 1 glucose transporter expression in 3T3-L1 adipocytes at dose of 0.3 uM; assay type: functional, Mus musculus
[4] = system: Mus musculus; experiment: In vivo ability to lower blood glucose in the ob/ob mouse model at a dose of 1 mg/kg; assay type: functional
[5] = system: 3T3-L1; experiment: Effect on GLUT 1 glucose transporter expression in 3T3-L1 adipocytes at dose of 3 uM; assay type: functional, Mus musculus
[6] = system: Mus musculus; experiment: In vivo ability to lower blood glucose in the ob/ob mouse model at a dose of 10 mg/kg; assay type: functional
[7] = system: Mus musculus; experiment: In vivo ability to lower blood glucose in the ob/ob mouse model at a dose of 25 mg/kg; assay type: functional

SMILES | Glucose normalisation [1] | Effect [2] | Effect [3] | Effect [5] | other results
CCCCCc1ccc(C(=O)N[C@H]2N=C(c3ccccc3)c3ccccc3N(C)C2=O)cc1 | 50% |  |  |  | 
CNC(=O)N(O)Cc1ccc(OCCc2nc(-c3ccccc3)oc2C)cc1 | 25% |  |  |  | 
Cc1oc(-c2ccccc2)nc1CCOc1ccc(Cn2oc(=O)[nH]c2=O)cc1 |  | 142.3% | 109.7% | 130.6% | Glucose normalisation [4]: 45%; Glucose normalisation [6]: 100%; Glucose normalisation [7]: 97%
Cc1oc(-c2ccccc2)nc1CCOc1ccc(CN(OC(=O)Oc2ccccc2)C(N)=O)cc1 | 25% |  |  |  | 
COC(=O)ON(Cc1ccc(OCCc2nc(-c3ccccc3)oc2C)cc1)C(N)=O | 80% | 164.5% | 90.5% | 113% | Glucose normalisation [4]: 28%; Glucose normalisation [6]: 77%; Glucose normalisation [7]: 100%
Cc1oc(-c2ccccc2)nc1CCOc1ccc(CN(O)C(N)=O)cc1 |  | 140.6% | 97% | 109.8% | 
CNC(=O)N(Cc1ccc(OCCc2nc(-c3ccccc3)oc2C)cc1)OC(=O)OC | 25% |  |  |  | 
CCOC(=O)ON(Cc1ccc(OCCc2nc(-c3ccccc3)oc2C)cc1)C(N)=O | 52% |  |  |  | 
CC1(COc2ccc(CC3SC(=O)NC3=O)cc2)CCCCC1 (configuration not stated) [CIGLITAZONE] |  | 151.3% |  |  | 
